Reference: ChEMBL document CHEMBL5500347, “An update on antibacterial AlkylGuanidino Ureas: Design of new derivatives, synergism with colistin and data analysis of the whole library” (2024)
In brackets after ≈: the same amount, converted by molar mass. Activity calls are given as the source filed them. The calls are words filed in the database; no cut-off is given here.

Experiments:
Pseudomonas aeruginosa [1] = assay: Synergistic antibacterial activity against Pseudomonas aeruginosa ATCC 27853 incubated for 18 to 24 hrs in presence of colistin by CLSI based microdilution broth method; format: functional; details: time 18-24 hrs
Acinetobacter baumannii [2] = assay: Synergistic antibacterial activity against Acinetobacter baumannii ATCC 17978 assessed as potentiation fold by measuring MIC to MAC ratio incubated for 18 to 24 hrs in presence of colistin by CLSI based microdilution broth method; format: functional; details: time 18-24 hrs
Pseudomonas aeruginosa [3] = assay: Synergistic antibacterial activity against Pseudomonas aeruginosa ATCC 27853 assessed as potentiation fold by measuring MIC to MAC ratio incubated for 18 to 24 hrs in presence of colistin by CLSI based microdilution broth method; format: functional; details: time 18-24 hrs
Acinetobacter baumannii [4] = assay: Antibacterial activity against Acinetobacter baumannii N50 incubated for 18 to 24 hrs by CLSI based microdilution broth method; format: functional; details: time 18-24 hrs
Pseudomonas aeruginosa [5] = assay: Antibacterial activity against Pseudomonas aeruginosa ATCC 27853 incubated for 18 to 24 hrs by CLSI based microdilution broth method; format: functional; details: time 18-24 hrs; for MIC: Pseudomonas aeruginosa, ATCC 27853
Escherichia coli [6] = assay: Antibacterial activity against Escherichia coli CCUGT incubated for 18 to 24 hrs by CLSI based microdilution broth method; format: functional; details: time 18-24 hrs
Acinetobacter baumannii [7] = assay: Synergistic antibacterial activity against Acinetobacter baumannii ATCC 17978 incubated for 18 to 24 hrs in presence of colistin by CLSI based microdilution broth method; format: functional; details: time 18-24 hrs
Acinetobacter baumannii [8] = assay: Synergistic antibacterial activity against Acinetobacter baumannii N50 assessed as potentiation fold by measuring MIC to MAC ratio incubated for 18 to 24 hrs in presence of colistin by CLSI based microdilution broth method; format: functional; details: time 18-24 hrs
Acinetobacter baumannii [9] = assay: Antibacterial activity against Acinetobacter baumannii ATCC 17978 incubated for 18 to 24 hrs by CLSI based microdilution broth method; format: functional; details: time 18-24 hrs; for MIC: Acinetobacter baumannii, ATCC 17978
Acinetobacter baumannii [10] = assay: Synergistic antibacterial activity against Acinetobacter baumannii N50 incubated for 18 to 24 hrs in presence of colistin by CLSI based microdilution broth method; format: functional; details: time 18-24 hrs
Klebsiella pneumoniae [11] = assay: Antibacterial activity against Klebsiella pneumoniae ATCC 13833 incubated for 18 to 24 hrs by CLSI based microdilution broth method; format: functional; details: time 18-24 hrs
Klebsiella pneumoniae [12] = assay: Synergistic antibacterial activity against Klebsiella pneumoniae ATCC 13833 incubated for 18 to 24 hrs in presence of colistin by CLSI based microdilution broth method; format: functional; details: time 18-24 hrs
Escherichia coli [13] = assay: Synergistic antibacterial activity against Escherichia coli CCUGT incubated for 18 to 24 hrs in presence of colistin by CLSI based microdilution broth method; format: functional; details: time 18-24 hrs
Klebsiella pneumoniae [14] = assay: Synergistic antibacterial activity against Klebsiella pneumoniae ATCC 13833 assessed as potentiation fold by measuring MIC to MAC ratio incubated for 18 to 24 hrs in presence of colistin by CLSI based microdilution broth method; format: functional; details: time 18-24 hrs
Escherichia coli [15] = assay: Synergistic antibacterial activity against Escherichia coli CCUGT assessed as potentiation fold by measuring MIC to MAC ratio incubated for 18 to 24 hrs in presence of colistin by CLSI based microdilution broth method; format: functional; details: time 18-24 hrs
Bacillus subtilis = assay: Antibacterial activity against Bacillus subtilis ATCC 6633 incubated for 18 to 24 hrs by CLSI based microdilution broth method; format: functional; details: time 18-24 hrs
Enterococcus faecalis = assay: Antibacterial activity against Enterococcus faecalis ATCC 19433 incubated for 18 to 24 hrs by CLSI based microdilution broth method; format: functional; details: time 18-24 hrs
Pseudomonas aeruginosa [16] = assay: Antibacterial activity against Pseudomonas aeruginosa ATCC 27853 at 256 ug/ml incubated for 18 to 24 hrs by CLSI based microdilution broth method; format: functional, organism-based; details: dose 256.0 µg/ml, time 18-24 hrs
Klebsiella pneumoniae [17] = assay: Antibacterial activity against Klebsiella pneumoniae ATCC 13833 at 256 ug/ml incubated for 18 to 24 hrs by CLSI based microdilution broth method; format: functional, organism-based; details: dose 256.0 µg/ml, time 18-24 hrs
Streptococcus pyogenes = assay: Antibacterial activity against Streptococcus pyogenes ATCC 12344 incubated for 18 to 24 hrs by CLSI based microdilution broth method; format: functional; details: time 18-24 hrs
Escherichia coli [18] = assay: Antibacterial activity against Escherichia coli CCUGT at 256 ug/ml incubated for 18 to 24 hrs by CLSI based microdilution broth method; format: functional, organism-based; details: dose 256.0 µg/ml, time 18-24 hrs
Staphylococcus aureus = assay: Antibacterial activity against Staphylococcus aureus ATCC 25923 incubated for 18 to 24 hrs by CLSI based microdilution broth method; format: functional; details: time 18-24 hrs
Acinetobacter baumannii [19] = assay: Antibacterial activity against Acinetobacter baumannii ATCC 17978 at 256 ug/ml incubated for 18 to 24 hrs by CLSI based microdilution broth method; format: functional, organism-based; details: dose 256.0 µg/ml, time 18-24 hrs
[20] = Escherichia coli, CCUGT, read-out: MIC
[21] = Klebsiella pneumoniae, ATCC 13833, read-out: MIC

Compound | Ratio (Acinetobacter baumannii [2]) | MIC (Acinetobacter baumannii [4]) [µg/mL] | MIC (Pseudomonas aeruginosa [5]) [µg/mL] | MIC (Escherichia coli [6]; [20]) [µg/mL] | MAC (Acinetobacter baumannii [7]) [µg/mL] | Ratio (Acinetobacter baumannii [8]) | MIC (Acinetobacter baumannii [9]) [µg/mL] | MAC (Acinetobacter baumannii [10]) [µg/mL] | MIC (Klebsiella pneumoniae [11]; [21]) [µg/mL] | MIC (Bacillus subtilis) [µg/mL] | MIC (Enterococcus faecalis) [µg/mL] | Activity (Pseudomonas aeruginosa [16]) | MIC (Streptococcus pyogenes) [µg/mL] | MIC (Staphylococcus aureus) [µg/mL] | Activity (Acinetobacter baumannii [19]) | also measured
N=C(NCCCCCCCCN(CCCCCCCCNC(=N)NCC1CC1)C(=O)N(CCCCCCNC(=N)NCC1CC1)CCCCCCNC(=N)NCC1CC1)NCC1CC1 | 16 | 64 (≈ 71.3 µM) | 128 (≈ 143 µM) | 4 (≈ 4.46 µM) | 4 | 32 | 64 (≈ 71.3 µM) | 2 | 4 (≈ 4.46 µM) |  |  |  |  |  |  | MAC (Pseudomonas aeruginosa [1]): 128 µg/mL; Ratio (Pseudomonas aeruginosa [3]): 1
N=C(N)NCCCCCCCCN(CCCCCCCCNC(=N)NCC1CC1)C(=O)NC(=N)NCCCCCCCCNCCCCCCCCNC(=N)NCC1CC1 | >256 | > 64 | > 256 | > 256 | 0.125 | >128 | > 64 | 0.5 | > 256 |  |  |  |  |  |  | MAC (Pseudomonas aeruginosa [1]): 2 µg/mL; MAC (Klebsiella pneumoniae [12]): 1 µg/mL; Ratio (Pseudomonas aeruginosa [3]): >128; MAC (Escherichia coli [13]): 0.5 µg/mL; Ratio (Klebsiella pneumoniae [14]): >256; Ratio (Escherichia coli [15]): >512
CC(C)NC(=N)NCCCCCCCCNC(N)=O.O=C(O)C(F)(F)F |  |  |  |  |  |  |  |  |  | 64 | 128 | inactive | 64 | 64 | inactive | Activity (Klebsiella pneumoniae [17]): inactive; Activity (Escherichia coli [18]): inactive
N=C(N)NCCCCCCCCN(CCCCCCCCN)C(=O)N(CCCCCCCCN)CCCCCCCCNC(=N)NCC1CC1 | 8 | 32 (≈ 45.3 µM) |  |  | 8 | 8 |  | 4 |  |  |  |  |  |  |  | MAC (Pseudomonas aeruginosa [1]): 8 µg/mL; MAC (Klebsiella pneumoniae [12]): 32 µg/mL; Ratio (Pseudomonas aeruginosa [3]): 16; MAC (Pseudomonas aeruginosa [5]): 128 µg/mL; MAC (Escherichia coli [13]): 0.5 µg/mL; MIC (Escherichia coli [6]): 32 µg/mL (≈ 45.3 µM); MAC (Acinetobacter baumannii [9]): 64 µg/mL; Ratio (Klebsiella pneumoniae [14]): 2; Ratio (Escherichia coli [15]): 64; MIC (Klebsiella pneumoniae [11]): 64 µg/mL (≈ 90.5 µM)
N=C(N)NCCCCCCN(CCCCCCNC(=N)NCC1CC1)C(=O)N(CCCCCCNC(=N)N)CCCCCCNC(=N)NCC1CC1 | 128 | > 256 | 256 (≈ 349 µM) | 16 (≈ 21.8 µM) | 1 | 1 | 128 (≈ 175 µM) | >256 | 32 (≈ 43.6 µM) |  |  |  |  |  |  | MAC (Pseudomonas aeruginosa [1]): 8 µg/mL; MAC (Klebsiella pneumoniae [12]): 16 µg/mL; Ratio (Pseudomonas aeruginosa [3]): 32; MAC (Escherichia coli [13]): 1 µg/mL; Ratio (Klebsiella pneumoniae [14]): 2; Ratio (Escherichia coli [15]): 16
CCNC(=N)NCCCCCCCCNC(N)=O.O=C(O)C(F)(F)F |  |  |  |  |  |  |  |  |  | 64 | 128 | inactive | 64 | 32 | inactive | Activity (Klebsiella pneumoniae [17]): inactive; Activity (Escherichia coli [18]): inactive
CCNC(=N)NCCCCCCCCN(CCCCCCCCNC(=N)NCC)C(=O)N(CCCCCCCCNC(=N)NCC)CCCCCCCCNC(=N)NCC | 32 | 64 (≈ 75.4 µM) | 64 (≈ 75.4 µM) | 2 (≈ 2.35 µM) | 0.5 | 256 | 16 (≈ 18.8 µM) | 0.25 | 4 (≈ 4.71 µM) |  |  |  |  |  |  | 
CCNC(=N)NCCCCCCN(CCCCCCNC(=N)NCC1CC1)C(=O)N(CCCCCCNC(=N)NCC)CCCCCCNC(=N)NCC1CC1 | 16 |  | 128 (≈ 162 µM) | 8 (≈ 10.1 µM) | 4 |  | 64 (≈ 81.1 µM) |  | 16 (≈ 20.3 µM) |  |  |  |  |  |  | MAC (Escherichia coli [13]): 8 µg/mL; Ratio (Escherichia coli [15]): 1
N=C(NCCCCCCNC(N)=O)NCC1CC1.O=C(O)C(F)(F)F |  |  |  |  |  |  |  |  |  | 128 | 128 | inactive | 128 | 128 | inactive | Activity (Klebsiella pneumoniae [17]): inactive; Activity (Escherichia coli [18]): inactive
C/C=C/CNC(=N)NCCCCCCCCNC(N)=O.O=C(O)C(F)(F)F |  |  |  | 128 |  |  |  |  | 128 | 64 | 64 | inactive | 32 | 32 | inactive | 
CNC(=N)NCCCCCCCCNC(N)=O.O=C(O)C(F)(F)F |  |  |  |  |  |  |  |  |  | 128 | 128 | inactive | 64 | 32 | inactive | Activity (Klebsiella pneumoniae [17]): inactive; Activity (Escherichia coli [18]): inactive
CC(C)=CCC/C(C)=C/CNC(=N)NCCCCCCCCN(CCCCCCCCNC(=N)N)C(=O)N(CCCCCCCCNC(=N)N)CCCCCCCCNC(=N)NC/C=C(\C)CCC=C(C)C.O=C(O)C(F)(F)F |  |  | 8 | 2 |  |  | 4 |  | 2 | 2 | 2 |  | 2 | 1 |  | 
N=C(N)NCCCCCCCCN(CCCCCCNC(=N)NCC1CC1)C(=O)N(CCCCCCCCNC(=N)N)CCCCCCNC(=N)NCC1CC1.O=C(O)C(F)(F)F |  |  | 128 | 4 |  |  | 64 |  | 4 | 1 | 8 |  | 1 | 0.25 |  | 
N=C(N)NCCCCCCCCCN(CCCCCCCCCNC(=N)NCC1CC1)C(=O)N(CCCCCCCCCNC(=N)N)CCCCCCCCCNC(=N)NCC1CC1.O=C(O)C(F)(F)F |  |  | 16 | 8 |  |  | 8 |  | 16 | 4 | 4 |  | 2 | 4 |  | 
N=C(N)NCCCCCCN(CCCCCCCCNC(=N)NCC1CC1)C(=O)N(CCCCCCCCNC(=N)NCC1CC1)CCCCCCNC(=N)N.O=C(O)C(F)(F)F |  |  | 32 | 2 |  |  | 32 |  | 2 | 1 | 4 |  | 1 | 0.25 |  | 
